From patent publication EP4810052A2, “HCRHR2 SELECTIVE POLYPEPTIDES” (Gubra A/S, priority 2023, dated 2026) come the findings set out here.

The EC50 is the concentration at which the effect is half-maximal.

Each structure is given as a SMILES string. Starred links: 1 amine or outer side, 2 acyl side, 3 side chain; linkers in the order of their positions; H or OH if unused. Non-standard residues stand in square brackets, D forms with d. Residues, ends and D or L forms follow the SMILES beside them. Groups on a side chain read outwards from the residue. *: point of attachment. C20 diacid = O=C(O)CCCCCCCCCCCCCCCCCCC(=O)*; γGlu = O=C(O)[C@H](CCC(=O)[*:2])N[*:1]; NMeI = CC[C@H](C)[C@H](NC)C(=O)O; AEEA = NCCOCCOCC(=O)O Where only a bound is given, the exact number is not on record here.

The conditions of series [1]: pH 7.5.
Procedure: Solubility was tested in the following vehicles: 100 mM phosphate buffer facilitating a target pH of 6.5, 7.0, and 7.5. Samples were directly dissolved in Mini-UniPrep Syringeless Filter 0.45 µm unit (Whatman). For the desired concentration, such as a concentration of 4000 µM (approximately 20 mg/mL), 1600 nmol peptide was dissolved in 400 µL vehicle. Samples were incubated for at least 1 h at room temperature on a rocking table. The pH was measured and adjusted. Samples were left on the rocking table for an additional hour before a second pH measurement and adjustment. Visual inspection was performed and noted before the filter was pushed. The concentration of peptide in the filtrate was determined using CAD (Charged Aerosol Detection), double determination was done for each sample. The measured concentration was reported in µM. Furthermore, the pH of the filtrate was measured and reported. Peptides with a measured concentration within +/-20% of target concentration are considered fully soluble.
Compounds were dissolved to a nominal concentration of 4000 µM and analysed as described above. Samples with phenol contained 5.0 mg/ml phenol.
Series [2] deals with T1, hCRHR2 (Homo sapiens, UniProt Q13324).
T1 sequence (Q13324 1-411): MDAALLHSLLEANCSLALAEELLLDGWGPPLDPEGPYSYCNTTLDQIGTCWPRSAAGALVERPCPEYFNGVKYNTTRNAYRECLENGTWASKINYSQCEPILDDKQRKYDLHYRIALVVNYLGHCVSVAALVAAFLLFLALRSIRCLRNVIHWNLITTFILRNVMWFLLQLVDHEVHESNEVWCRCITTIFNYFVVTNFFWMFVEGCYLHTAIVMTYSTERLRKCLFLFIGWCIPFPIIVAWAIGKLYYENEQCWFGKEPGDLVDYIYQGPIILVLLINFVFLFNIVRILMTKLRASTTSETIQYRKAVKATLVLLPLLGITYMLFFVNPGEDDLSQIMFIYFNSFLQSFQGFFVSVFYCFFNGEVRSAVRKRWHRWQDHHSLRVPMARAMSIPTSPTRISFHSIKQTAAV
Briefly: HTRF cAMP assay, determination of hCRHR2 potency (peptide libraries 5 conc., purified peptides 11 conc.). Format: cell-based. The settings on record: for Selectivity ratio (hCRHR1/ hCRHR2): hCRHR1-EC50/hCRHR2-EC50; for EC50: purified peptides, CHO-K1 cells stably expressing hCRHR2, cAMP HTRF, read-out: hCRHR2 EC50. A digest of the protocol: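 Frozen stocks of hCRHR2-expressing CHO-K1 cells, thawed just before testing, received peptide agonists in suspension; cAMP quantified by competitive HTRF immunoassay, with curves fitted by nonlinear regression (variable slope) for EC50.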
A general note: In TR-FRET formats the signal depends on donor and acceptor labels being close together.

The nature of series [3]: Thioflavin T fibril formation assay of purified peptides. Format: physicochemical. The settings on record: pH 7.5, ThT assay. The method, then:
Thioflavin T fibril formation assay: Peptides were dissolved as 267 µM in 50 mM phosphate buffer pH 7.5 for 2 h at room temperature on a rocking table. The samples were then divided into three replicates of 80 µl/well and mixed with 2 µl/well Thioflavin T (ThT)to a final concentration of 4 µM ThT in a black 384 well microplate with a clear bottom (Greiner #781096). The plate was inserted in a CLARIOstar Plus microplate reader (BMG Labtech) and fibril formation was measured as an increase in fluorescence emission at 480 nm (excitation at 450 nm) during 96 h at 40°C with cycles of 5 min rest and 5 min linearshaking at700 rpm.
Compounds were dissolved to 200 µM (ca 1.0 mg/ml) in 50 mM phosphate buffer with preparation and ThT assay performed as described in the "General procedure for determination of fibril formation of peptides." above. Furthermore, samples were adjusted to pH values as indicated below. Additional co-formulations of compounds with semaglutide were prepared by dissolving compounds to 200 µM in commercially available semaglutide drug product (Ozempic®); these co-formulations were adjusted to pH 7.4.

A short description of series [4]: Chemical stability of purified peptides (RP-UHPLC main peak purity loss). It is filed as physicochemical. Conditions: pH 7.5, 40°C; for Chemical stability at pH 7.5 after 14 days at 40°C (% degradation): first value of cell; for Chemical stability at pH 7.5 after 28 days at 40°C (% degradation): second value of cell. The protocol: Chemical stability was tested at a concentration of approximately of 1.0 mg/ml peptide in the following vehicles: 50 mM phosphate buffer pH 7.5. Dissolved samples were incubated for at least 2 h at room temperature on a rocking table. The main peak purity at time zero (T0) was determined using reversed phase chromatography. The samples were incubated at 40°C for 14 days (T14) and 28 days (T28). The samples were analyzed with reversed phase chromatography and size exclusion chromatography.
Reversed Phase chromatography was performed on a Thermo Dionex Ultimate UHPLC system with UV detection at 215 nm) and equipped with a Kinetex column (1.7 µm, C8, 100 Å, 150 x 2.1 mm (00F-4499-AN)). Analysis was performed by gradient elution with buffer A (0.1% TFA in 95:5 H2O:acetonitrile) and buffer B (0.1% TFA in 5:95 H2O: acetonitrile) at a column temperature of 50 °C (gradient used 25-55%B over 40 min. Flowrate was 0.5 mL/min. The main peak purity was determined from the integrated chromatogram as the area under the main peak relative to the total peak area. The purity loss was calculated as the difference between the T0 and T14 time point and/or as the difference between the T0 and T28 time point.
The chemical stability of selected peptides was evaluated at varying pH's at 40° C over 28 days. Samples were prepared and analysed as described in procedure with the addition of pH adjusting samples to the targets indicated below. As a comparator,r commercially available semaglutide drug product (Ozempic®, Novo Nordisk) was included in the sample set.

The target of series [5] is T2, hCRHR1 (Homo sapiens, UniProt P34998).
T2 sequence (P34998 24-415): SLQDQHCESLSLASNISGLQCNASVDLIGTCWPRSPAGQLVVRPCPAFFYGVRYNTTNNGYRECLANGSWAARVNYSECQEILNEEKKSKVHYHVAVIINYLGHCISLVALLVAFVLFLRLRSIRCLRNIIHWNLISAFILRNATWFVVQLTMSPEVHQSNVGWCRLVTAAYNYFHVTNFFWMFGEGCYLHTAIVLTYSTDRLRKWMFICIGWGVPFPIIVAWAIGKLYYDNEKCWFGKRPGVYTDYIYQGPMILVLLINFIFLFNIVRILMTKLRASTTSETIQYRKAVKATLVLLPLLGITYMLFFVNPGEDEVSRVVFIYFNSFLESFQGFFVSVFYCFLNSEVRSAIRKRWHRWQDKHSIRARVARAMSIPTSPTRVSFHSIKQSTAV
Put plainly: HTRF cAMP assay, determination of hCRHR1 potency (peptide libraries 5 conc., purified peptides 11 conc.). Format: cell-based. The settings on record: purified peptides; CHO-K1 cells stably expressing hCRHR1, cAMP HTRF; read-out: hCRHR1 EC50. A digest of the protocol: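 Cellular cAMP was read by time-resolved FRET between d2-labelled cAMP and cryptate anti-cAMP antibody. The cells were freshly thawed suspension CHO-K1 cells stably expressing human CRHR1.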

Consider `CC[C@H](C)[C@H](N)C(=O)N[C@H](C(=O)N[C@@H](CC(C)C)C(=O)N[C@@H](CO)C(=O)N[C@@H](CC(C)C)C(=O)N[C@@H](CC(=O)O)C(=O)N[C@H](C(=O)N1CCC[C@H]1C(=O)N[C@H](C(=O)NCC(=O)N[C@@H](CC(C)C)C(=O)N[C@@H](CC(C)C)C(=O)N[C@@H](CCC(N)=O)C(=O)N[C@H](C(=O)N[C@@H](CC(C)C)C(=O)N[C@@H](CC(C)C)C(=O)N[C@@H](CCC(=O)O)C(=O)N[C@@H](CCC(N)=O)C(=O)N[C@@H](C)C(=O)N[C@@H](CCCNC(=N)N)C(=O)N[C@@H](C)C(=O)N[C@@H](CCCNC(=N)N)C(=O)N[C@@H](C)C(=O)N[C@@H](C)C(=O)N[C@@H](CCCNC(=N)N)C(=O)N[C@@H](CCC(=O)O)C(=O)N[C@@H](CCC(N)=O)C(=O)N[C@@H](C)C(=O)N[C@@H](CCCCNC(=O)COCCOCCNC(=O)COCCOCCNC(=O)CC[C@H](NC(=O)CC[C@H](NC(=O)CCCCCCCCCCCCCCCCCCC(=O)O)C(=O)O)C(=O)O)C(=O)N[C@H](C(=O)N[C@@H](CC(N)=O)C(=O)N[C@H](C(=O)N[C@@H](CCC(=O)O)C(=O)N[C@H](C(=O)N[C@@H](CC(C)C)C(=O)N[C@@H](C)C(=O)N[C@@H](CCC(=O)O)C(=O)N[C@H](C(N)=O)C(C)C)[C@@H](C)CC)[C@@H](C)CC)[C@@H](C)O)[C@@H](C)CC)[C@@H](C)CC)C(C)C)C(C)C` [SEQ ID NO: 13] (H-IVLSLDVPIGLLQILLEQARARAAREQAK([AEEA-AEEA-γGlu-γGlu-C20 diacid])TNIEILAEV-NH2), for which the “Solubility pH 7.5, target conc. =10 mg/mL (measured mg/mL)” value in series [1] is 8.9 mg/mL. In series [2], the “Selectivity ratio (hCRHR1/ hCRHR2)” value is recorded as above 926 and the 50% effective concentration (EC50) worked out at 5.4 nM. Besides, the “Fibrillation (pH 7.5)” value in series [3] is “No”. Also, in series [4], the “Chemical stability at pH 7.5 after 14 days at 40°C (% degradation)” value is -0.3% and the “Chemical stability at pH 7.5 after 28 days at 40°C (% degradation)” value is -1.6%. Further, the EC50 in series [5] was above 5000 nM.
On to `CC[C@H](C)[C@H](NC(=O)[C@H](CCC(=O)O)NC(=O)[C@H](C)NC(=O)[C@H](CC(N)=O)NC(=O)[C@@H](NC(=O)[C@H](CCCCNC(=O)COCCOCCNC(=O)COCCOCCNC(=O)CC[C@H](NC(=O)CC[C@H](NC(=O)CCCCCCCCCCCCCCCCCCC(=O)O)C(=O)O)C(=O)O)NC(=O)[C@H](C)NC(=O)[C@H](CCC(N)=O)NC(=O)[C@H](CCC(=O)O)NC(=O)[C@H](CCCNC(=N)N)NC(=O)[C@H](C)NC(=O)[C@H](C)NC(=O)[C@H](CCCNC(=N)N)NC(=O)[C@H](C)NC(=O)[C@H](CCCNC(=N)N)NC(=O)[C@H](C)NC(=O)[C@H](CCC(N)=O)NC(=O)[C@H](CCC(=O)O)NC(=O)[C@H](CC(C)C)NC(=O)[C@H](CC(C)C)NC(=O)[C@@H](NC(=O)[C@H](CCC(N)=O)NC(=O)[C@H](CC(C)C)NC(=O)[C@H](CC(C)C)NC(=O)CNC(=O)[C@@H](NC(=O)[C@@H]1CCCN1C(=O)[C@@H](NC(=O)[C@H](CC(=O)O)NC(=O)[C@H](CC(C)C)NC(=O)[C@H](CO)NC(=O)[C@H](CC(C)C)NC(=O)[C@@H](NC(=O)[C@@H]1CCCN1)C(C)C)C(C)C)[C@@H](C)CC)[C@@H](C)CC)[C@@H](C)O)C(=O)N[C@@H](CC(C)C)C(=O)N[C@@H](C)C(=O)N[C@@H](CCC(=O)O)C(=O)N[C@H](C(N)=O)C(C)C` [SEQ ID NO: 7] (H-PVLSLDVPIGLLQILLEQARARAAREQAK([AEEA-AEEA-γGlu-γGlu-C20 diacid])TNAEILAEV-NH2), for which the “Solubility pH 7.5, target conc. =10 mg/mL (measured mg/mL)” value in series [1] stood at 9.8 mg/mL. In series [2], the “Selectivity ratio (hCRHR1/ hCRHR2)” value was above 2000. The half-maximal effective concentration (EC50) in series [2] was 2.5 nM; in series [5] it was above 5000 nM. For the same molecule, the “Fibrillation (pH 7.5)” value in series [3] was “No”. Further, the “Chemical stability at pH 7.5 after 28 days at 40°C (% degradation)” value in series [4] is -23%.
On to `CC[C@H](C)[C@H](NC)C(=O)N[C@H](C(=O)N[C@@H](CC(C)C)C(=O)N[C@@H](CO)C(=O)N[C@@H](CC(C)C)C(=O)N[C@@H](CC(=O)O)C(=O)N[C@H](C(=O)N1CCC[C@H]1C(=O)N[C@H](C(=O)NCC(=O)N[C@@H](CC(C)C)C(=O)N[C@@H](CC(C)C)C(=O)N[C@@H](CCC(N)=O)C(=O)N[C@H](C(=O)N[C@@H](CC(C)C)C(=O)N[C@@H](CC(C)C)C(=O)N[C@@H](CCC(=O)O)C(=O)N[C@@H](CCC(N)=O)C(=O)N[C@@H](C)C(=O)N[C@@H](CCCNC(=N)N)C(=O)N[C@@H](C)C(=O)N[C@@H](CCCNC(=N)N)C(=O)N[C@@H](C)C(=O)N[C@@H](C)C(=O)N[C@@H](CCCNC(=N)N)C(=O)N[C@@H](CCC(=O)O)C(=O)N[C@@H](CCC(N)=O)C(=O)N[C@@H](C)C(=O)N[C@@H](CCCCNC(=O)COCCOCCNC(=O)COCCOCCNC(=O)CC[C@H](NC(=O)CC[C@H](NC(=O)CCCCCCCCCCCCCCCCCCC(=O)O)C(=O)O)C(=O)O)C(=O)N[C@@H](CCC(=O)O)C(=O)N[C@@H](CC(N)=O)C(=O)N[C@@H](C)C(=O)N[C@@H](CCC(=O)O)C(=O)N[C@H](C(=O)N[C@@H](CC(C)C)C(=O)N[C@@H](C)C(=O)N[C@@H](CCC(=O)O)C(=O)N[C@H](C(N)=O)C(C)C)[C@@H](C)CC)[C@@H](C)CC)[C@@H](C)CC)C(C)C)C(C)C` [SEQ ID NO: 18] (H-[NMeI]VLSLDVPIGLLQILLEQARARAAREQAK([AEEA-AEEA-γGlu-γGlu-C20 diacid])ENAEILAEV-NH2), for which the “Solubility pH 7.5, target conc. =10 mg/mL (measured mg/mL)” value in series [1] worked out at 11 mg/mL. For the same molecule, in series [2], the “Selectivity ratio (hCRHR1/ hCRHR2)” value is recorded as above 3571. In addition, the EC50 was 1.4 nM in series [2] and above 5000 nM in series [5]. Further, the “Fibrillation (pH 7.5)” value in series [3] is “No”. For the same molecule, in series [4], the “Chemical stability at pH 7.5 after 14 days at 40°C (% degradation)” value is given as -2.2 / ND %.
